Tests used:
[1] = cited from earlier work
[2] = type: physicochemical
[3] = Drug release from SEDDS during in vitro digestion, EPR; type: physicochemical
[4] = type: physicochemical; details: soybean oil in fed state medium, absence of lipolysis

SMILES | logP [1] | percentage of released drug from SEDDS ([2]; 90 minutes, absence of digestion) | drug released from SEDDS ([2]; over 18 hours, absence of digestive enzyme) | time of leveling off of drug release [3] | TB uptake constant into oil, Prel [4] | octanol/water partition coefficient (log P) [1]
CC(C)(Sc1cc(C(C)(C)C)c(O)c(C(C)(C)C)c1)Sc1cc(C(C)(C)C)c(O)c(C(C)(C)C)c1 [Probucol] | 8.92 | – | – | – | – | –
CC1(C)CC(OC(=O)c2ccccc2)CC(C)(C)N1[O] [TB, TEMPOL benzoate] | – | 9% | 14% | 50 min | 0.0352 ×10⁻⁶ cm/s | 2.46

— publication PMC4281523 (Pharmaceutical research, 2013)
